Assays:
Experiment in all cases: normalised response (% of control), CellTox Green; higher = less cell death (100 = DMSO, 0 = benzethonium chloride kill control)
Conditions in all cases: incubation time: 72 h
[1] = system: MDA-MB-453
Method in brief: (§1)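 Each value is the plate-normalised signal at one concentration of the series. Breast cancer cell lines (20 µl suspension) were incubated 72 h in 384-well plates with compound at 5 concentrations in 10-fold steps over a compound-specific 10,000-fold range. CellTox Green and then CellTiter-Glo were read, and each plate was scaled to 0.1 % DMSO (100) and a positive kill control (0).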

[2] = system: DU-4475
Method in brief: as §1

[3] = system: BT-549
Method in brief: as §1

[4] = system: MDA-MB-436
Method in brief: as §1

[5] = system: CAL-85-1
Method in brief: as §1

[6] = system: CAL-51
Method in brief: as §1

[7] = system: BT-474
Method in brief: as §1

[8] = system: HCC1937
Method in brief: as §1

[9] = system: HDQ-P1
Method in brief: as §1

[10] = system: MFM-223
Method in brief: as §1

[11] = system: MCF-10A
Method in brief: as §1

[12] = system: MDA-MB-231
Method in brief: as §1

[13] = system: MDA-MB-468
Method in brief: as §1

[14] = system: CAL-120
Method in brief: as §1

[15] = system: HCC1143
Method in brief: as §1

[16] = system: CAL-148
Method in brief: as §1

[17] = system: HCC1599
Method in brief: as §1

Row | SMILES | normalised response [1] [%] | normalised response [2] [%] | normalised response [3] [%] | normalised response [4] [%] | normalised response [5] [%] | normalised response [6] [%] | normalised response [7] [%] | normalised response [8] [%] | normalised response [9] [%] | normalised response [10] [%] | normalised response [11] [%] | normalised response [12] [%] | normalised response [13] [%] | normalised response [14] [%] | normalised response [15] [%] | normalised response [16] [%] | normalised response [17] [%]
1 | COc1ccc(-c2cc3c(C)nc(N)nc3n([C@H]3CC[C@H](OCCO)CC3)c2=O)cn1 (1000 nM) | 84.2 | 86.2 | 115 | 113 | 79.9 | 43.9 | 49.8 | -51.2 | 84.7 | 81 | 93.2 | 76.8 | 123 | 98.5 | 79.8 | 51.2 | 90.4
2 | COc1ccc(-c2cc3c(C)nc(N)nc3n([C@H]3CC[C@H](OCCO)CC3)c2=O)cn1 (10000 nM) | 61.1 | 67.2 | 0.06 | 100 | 52.1 | 17.6 | -9.27 | 41.4 | -2.73 | 52.8 | 72.4 | 4.33 | 59.9 | 75.8 | 91.1 | -9.66 | 92.1
3 | O=C(Nc1c[nH]nc1-c1nc2ccc(CN3CCOCC3)cc2[nH]1)NC1CC1 [AT9283] (1000 nM) | 101 | 106 | 70.5 | 77.6 | 37.8 | 56 | 89.1 | 116 | 88.2 | 75 | 88.4 | 40.6 | 65.6 | 57.7 | 119 | 83.9 | 105
4 | COc1cc(CCc2cc(NC(=O)c3ccc(N4CC(C)NC(C)C4)cc3)n[nH]2)cc(OC)c1 (stereo unspecified) [AZD4547] (100 nM) | 100 | 97.8 | 118 | 91 | 108 | 95.6 | 96.5 | 113 | 89.4 | 97.4 | 105 | 90.1 | 117 | 99.3 | 82 | 101 | 90.6
5 | COc1cc(CCc2cc(NC(=O)c3ccc(N4CC(C)NC(C)C4)cc3)n[nH]2)cc(OC)c1 (stereo unspecified) [AZD4547] (1000 nM) | 103 | 98.5 | 90 | 95.4 | 126 | 96.6 | 99.9 | 88.6 |  | 95.5 | 63.9 | 110 | 190 | 89.5 | 59.4 | 57.8 | 100
6 | CCC/C=C/C=C/C(=O)O[C@H]1/C(=C/C(=O)OC)C[C@H]2C[C@H]([C@@H](C)O)OC(=O)C[C@H](O)C[C@@H]3C[C@H](OC(C)=O)C(C)(C)[C@](O)(C[C@@H]4C/C(=C/C(=O)OC)C[C@H](/C=C/C(C)(C)[C@]1(O)O2)O4)O3 [Bryostatin 1] (10 nM) | 99.9 | 106 | 139 | 74.1 | 91.3 | 92 | 106 | 83.2 |  | 88 | 109 | 117 | 116 | 102 | 116 | 108 | 115
7 | CCC/C=C/C=C/C(=O)O[C@H]1/C(=C/C(=O)OC)C[C@H]2C[C@H]([C@@H](C)O)OC(=O)C[C@H](O)C[C@@H]3C[C@H](OC(C)=O)C(C)(C)[C@](O)(C[C@@H]4C/C(=C/C(=O)OC)C[C@H](/C=C/C(C)(C)[C@]1(O)O2)O4)O3 [Bryostatin 1] (100 nM) | 104 | 112 | 122 |  | 64.6 | 104 | 93.1 |  | 73.7 | 104 | 103 | 120 | 150 | 99.8 | 53.9 | 105 | 118
8 | CO[C@@H](C(=O)N1Cc2[nH]nc(NC(=O)c3ccc(N4CCN(C)CC4)cc3)c2C1)c1ccccc1 [Danusertib] (1000 nM) | 84.9 | 97.3 | 112 |  | 97.5 | 57.8 | 102 | 129 | 105 | 92.9 | 110 | 101 | 51.4 | 94 | 66.9 | 45.1 | 104
9 | CO[C@@H](C(=O)N1Cc2[nH]nc(NC(=O)c3ccc(N4CCN(C)CC4)cc3)c2C1)c1ccccc1 [Danusertib] (10000 nM) | 112 | 102 | 53.1 | 75.7 | 67.3 | 22.9 | 91.6 |  | 48 | 94.9 | 57.6 | 93.2 | 55.9 | 28.7 | 127 | 90.5 | 106
10 | Cc1nc(Nc2ncc(C(=O)Nc3c(C)cccc3Cl)s2)cc(N2CCN(CCO)CC2)n1 [Dasatinib] (100 nM) | 97.2 | 102 | 85.9 | 107 | 74 | 68.4 | 94.4 | 5.95 | 90.2 | 91.5 | 112 | 84.3 | 101 | 97.2 | 70.1 | 98.8 | 95.6
11 | Cc1nc(Nc2ncc(C(=O)Nc3c(C)cccc3Cl)s2)cc(N2CCN(CCO)CC2)n1 [Dasatinib] (1000 nM) | 92.5 | 96.6 | 39.7 | 97 | 43.1 | 75.6 | 103 | 91.4 | 81.3 |  | 63 | 35 | 99.7 | 100 | 107 | 104 | 102
12 | Cc1c(CN2CCN(C(=O)[C@H](C)O)CC2)sc2c(N3CCOCC3)nc(-c3cnc(N)nc3)nc12 [GDC-0980] (1000 nM) | 104 | 98.7 | 108 | 102 | 97.7 | 90.8 | 85.6 | 107 | 103 | 76.5 | 100 | 98.8 | 117 | 103 | 85 | 68.3 | 99.9
13 | Cc1c(CN2CCN(C(=O)[C@H](C)O)CC2)sc2c(N3CCOCC3)nc(-c3cnc(N)nc3)nc12 [GDC-0980] (10000 nM) | 86.7 | 85.5 | 95.2 | 98.5 | 58 | 18 | 53.5 | 101 | 41.6 | -39.7 | 88.3 | 98.1 | 119 | 104 | 47 | 49.1 | 96.9
14 | Nc1cccc2c1CN(C1CCC(=O)NC1=O)C2=O (stereo unspecified) [Lenalidomide] (1000 nM) | 103 | 103 | 125 | 88.4 | 92.2 | 104 | 99.8 | 113 | 104 | 99.6 | 108 | 109 | 122 | 96.9 | 111 |  | 105
15 | Nc1cccc2c1CN(C1CCC(=O)NC1=O)C2=O (stereo unspecified) [Lenalidomide] (10000 nM) | 99.8 | 100 | 117 | 95.5 | 90.7 | 102 | 102 | 97.7 | 98.5 | 80.3 | 91.8 | 108 | 138 | 97.7 | 119 |  | 103
16 | C[C@]12O[C@H](C[C@]1(O)CO)n1c3ccccc3c3c4c(c5c6ccccc6n2c5c31)CNC4=O [Lestaurtinib] (100 nM) | 102 | 91.5 | 99.7 | 66.7 | 83.4 | 56.4 | 94 | 81.8 | 105 | 86.4 | 107 |  | 69.6 | 96.2 | 116 | 95.8 | 74.8
17 | C[C@]12O[C@H](C[C@]1(O)CO)n1c3ccccc3c3c4c(c5c6ccccc6n2c5c31)CNC4=O [Lestaurtinib] (1000 nM) | 104 | 71.7 | 50 | 51.6 | 21.5 | 111 | 77.2 | 89.6 | 76.4 | 89.8 | 66 | 89.2 | 107 | 65.5 | 73.5 | 67 | 57.5
18 | Nc1ccccc1NC(=O)c1ccc(CNc2nccc(-c3cccnc3)n2)cc1 [Mocetinostat] (1000 nM) | 99.2 | 93 | 103 | 66.7 | 101 | 67 | 96 | 105 |  | 92.4 | 106 | 81.3 | 62.9 | 95.2 | 98.2 | 98.8 | 83.2
19 | COc1nc(N)nc2c1ncn2[C@@H]1O[C@H](CO)[C@@H](O)[C@@H]1O [Nelarabine] (1000 nM) | 104 | 94.7 | 128 | 88.7 | 108 | 99.3 | 96.4 | 100 | 78.7 | 89.8 | 98.8 | 106 | 102 | 89 |  | 87.2 | 90.3
20 | O=C(CCBr)N1CCN(C(=O)CCBr)CC1 [Pipobroman] (1000 nM) | 90.5 | 101 | 98.2 | 102 | 106 | 106 | 100 | 93.2 | 100 | 94 | 103 | 96.7 | 84.6 | 98.9 |  |  | 93.6
21 | O=C(CCBr)N1CCN(C(=O)CCBr)CC1 [Pipobroman] (10000 nM) | 96.5 | 96.9 | 98.9 | 101 | 77.6 | 101 | 100 | 105 | 104 |  | 88.8 | 83.1 | 134 | 91.5 |  | 96.9 | 97.4
22 | C[C@]12C=CC(=O)C=C1CC[C@@H]1[C@@H]2[C@@H](O)C[C@@]2(C)[C@H]1CC[C@]2(O)C(=O)CO [Prednisolone] (1000 nM) |  | 102 | 116 | 54.9 | 98.9 | 113 | 99.6 | 122 |  | 95.8 | 101 | 142 | 156 | 98.7 | 112 | 104 | 100
23 | CC[C@@]1(O)C(=O)OCc2c1cc1n(c2=O)Cc2cc3c(CN(C)C)c(O)ccc3nc2-1 [Topotecan] (1000 nM) | 108 | 83.2 | 90.6 | 71 | 67.8 | 18.9 | 96.6 | 95.1 |  | 90.7 | 92.2 |  | -478 | 85 | 76.7 | 12 | 81.3

Source: the supplement of paper PMC4862054
